Earlier results, collected in patent US20160304829A1, “Automated Superparamagnetic Particle Handling System” (LIFE TECHNOLOGIES AS, priority 2006, published 2016).

Target: streptavidin (Streptomyces avidinii, UniProt P22629)
Details: Piran & Riordan 1990

Sequence of streptavidin (P22629 25-183): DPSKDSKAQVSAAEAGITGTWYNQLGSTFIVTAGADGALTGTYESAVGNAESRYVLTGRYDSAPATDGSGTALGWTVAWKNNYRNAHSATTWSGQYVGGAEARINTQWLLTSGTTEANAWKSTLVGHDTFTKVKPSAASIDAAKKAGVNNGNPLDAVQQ

## O=C(O)CCCC[C@@H]1SC[C@@H]2NC(=O)N[C@@H]21 [biotin, cis-hexahydro-2oxo-1H-thieno [3,4]imidazole-4-pentanoic acid]
  dissociation from streptavidin, times faster than dissociation from avidin: about 30 times
